# Measured values as given in US7122549B2, “Saframycins, analogues and uses thereof” (President and Fellows of Harvard College, priority 2000, dated 2006).
# Like-named read-outs stand apart in the source and are kept apart here.
# Legend:
# A-549 lung carcinoma = assay: Cell Growth Inhibition Assay (MTS, CellTiter 96 AQueous); assay type: cell-based
# Protocol: (§1) The two cell lines used, A375 malignant melanoma and A-549 lung carcinoma, were purchased from American Type Culture Collection. These cells were cultured at 37° C. in a humidified atmosphere of 5% CO2 in Dulbecco's Modified Eagle Medium (DMEM) supplemented with 10% fetal bovine serum (FBS), 0.1% glutamine and 0.1% penicillin-streptomycin. DMEM, FBS, glutamine and penicillin-streptomycin were purchased from Life Technologies (Grand Island, N.Y.).
# (§2) Exponentially growing cells were seeded at ˜3000 (50 μl) cells per well in 96-well flat-bottomed microtiter plates and then incubated at 37° C. in a humidified atmosphere of 5% CO2/95% air for 24 hr. An analogue was dissolved in dimethyl sulfoxide to give a concentration of 0.6 mg/ml, which was further diluted with the culture medium containing 10% fetal bovine serum. Nine three-fold dilutions were prepared with the maximum concentration being 1/300 of the original DMSO solution (i.e. 2000 ng/ml). This procedure was repeated for each analogue. Fifty microliters of the obtained dilutions were each transferred into the well of the above described culture plate. The cell culture was then placed back into the incubator at 37° C. under the 5% CO2 atmosphere for 72 hr. Cell proliferation was quantified by using the CellTiter 96 AQueous Assay (Promega). In this assay a mixture solution (20 μl) of MTS [Owen's reagent: 3-(4,5-dimethylthiazol-2-yl)-5-(3-carbomethoxyphenyl)-2-(4-sulfophenyl)-2H-tetrazolium inner salt] and phenazine methosulfate (PMS) was added to each well. The resulting mixtures were further incubated for 2.5 hr. The absorbance was measured with a microplate reader at a test wavelength of 540 nm and a reference wavelength of 655 nm to serve as an index of the number of viable cells. The inhibitory ratio of the test compound was calculated according to the following formula: inhibition ratio (%)=100×(C−T)/C, where T is an absorbance of the well containing a test compound and C is an absorbance of the well containing no test compound. The IC50 was calculated by the least squares method.
# A375 malignant melanoma = assay: as above; assay type: cell-based
# Protocol: as §1, §2
# [1] = Homo sapiens, Table 1, A549 cells, 72 hr with compound, MTS readout, read-out: IC50, nM A549
# [2] = Homo sapiens, A-375, Table 1, A375 cells, 72 hr with compound, MTS readout, read-out: IC50, nM A375
# [3] = Homo sapiens, A549, 72 h, read-out: IC50, nM A549
# [4] = Homo sapiens, A-375, 72 h, read-out: IC50, nM A375
# [5] = Homo sapiens, Table 2, A549 cells, 72 hr with compound, MTS readout, read-out: IC50 (nM) Cell line A549-Lung
# [6] = Homo sapiens, A-375, Table 2, A375 cells, 72 hr with compound, MTS readout, read-out: IC50 (nM) Cell line A375-Melanoma
# [7] = Homo sapiens, Table 3, A549 cells, 72 hr with compound, MTS readout, read-out: IC50 (nM) Cell line A549-Lung
# [8] = Homo sapiens, A-375, Table 3, A375 cells, 72 hr with compound, MTS readout, read-out: IC50 (nM) Cell line A375-Melanoma
SMILES,IC50 (A-549 lung carcinoma; [1]) [nM],IC50 (A375 malignant melanoma; [2]) [nM],other results
CC(=O)C(N)=O,160,4.5,
NCc1ccccc1,1100,330,
NCc1ccccn1,700,260,
NC(=O)c1ccco1,290,13,
NC(=O)Cc1ccccc1,,,IC50 (A-549 lung carcinoma; [3]): 1200 nM; IC50 (A375 malignant melanoma; [4]): 34 nM
NC(=O)C(=O)Cc1ccccc1,39,2.4,
NC(=O)OCc1ccccc1,,,IC50 (A-549 lung carcinoma; [3]): 50 nM; IC50 (A375 malignant melanoma; [4]): 3.9 nM
COc1ccc(OC(N)=O)cc1,,,IC50 (A-549 lung carcinoma; [3]): 96 nM; IC50 (A375 malignant melanoma; [4]): 3.4 nM
NC(=O)Nc1ccccc1,890,37,
Cc1ccc(S(N)(=O)=O)cc1,860,81,
NC(=O)c1ncccc1O,11.3,1.2,
Cc1ccc(C(N)=O)c(O)c1,6.5,1.2,
COc1cccc(C(N)=O)c1,99,4.1,
NC(=O)c1c(F)cccc1F,395,12,
COc1cc(C(N)=O)cc(OC)c1OC,390,14,
NC(=O)c1c(F)c(F)c(F)c(F)c1F,100,8.5,
NC(=O)c1ccccn1,40,3.3,
NC(=O)c1cnccn1,100,4.4,
NC(=O)c1cc2ccccc2[nH]1,31,2.7,
NC(=O)c1c[nH]c2ccccc12,1200,76,
NC(=O)c1cccc2[nH]ccc12,1100,85,
NC(=O)c1cc2cc(F)ccc2[nH]1,26,2.5,
NC(=O)C(=O)c1c[nH]c2ccccc12,,,IC50 (A-549 lung carcinoma; [3]): 110 nM; IC50 (A375 malignant melanoma; [4]): 9.6 nM
NC(=O)[C@H](Cc1c[nH]c2ccccc12)NC(=O)OCc1ccccc1,1100,96,
NC(=O)[C@@H](N)Cc1c[nH]c2ccccc12,> 1400,310,
O=C1NC(=O)c2ccccc21,9.2,1.7,

SMILES,IC50 (A-549 lung carcinoma; [1]) [nM],IC50 (A375 malignant melanoma; [2]) [nM],other results
O=C1NC(=O)c2ncccc21,> 510,> 510,
NC(=O)/C=C/c1ccccc1,44,2.9,
NC(=O)c1cccc2ccccc12,390,43,
NC(=O)c1nccc2ccccc12,32,2.5,
NC(=O)c1c(O)ccc2ccccc12,320,23,
NC(=O)c1ncc(Br)c2ccccc12,25,9.2,
Cc1ccc2ccc(C(N)=O)nc2c1,4.6,1.4,
NC(=O)c1cc(O)c2ccc(Cl)cc2n1,42,7.5,
NC(=O)c1cc(O)c2cc(Cl)ccc2n1,74,13,
NC(=O)c1cnc2ccccc2n1,4.7,1.2,
NC(=O)[C@@H]1Cc2ccccc2CN1,200,8.3,
NC(=O)C1NCCc2ccccc21 (stereo not shown),,3440,
COc1c(C)c(OC)c2c(c1O)[C@@H]1[C@@H]3Cc4c(OC)c(C)c(OC)c(O)c4[C@H](CNC(=O)OCC4c5ccccc5-c5ccccc54)N3[C@@H](C#N)C(C2)N1C,,,IC50 (A-549 lung carcinoma; [5]): 176 nM; IC50 (A375 malignant melanoma; [6]): 35 nM
CCCCC[C@H]1c2c(O)c(OC)c(C)c(OC)c2C[C@H]2[C@H]3c4c(O)c(OC)c(C)c(OC)c4C[C@@H]([C@H](C#N)N12)N3C,,,IC50 (A-549 lung carcinoma; [5]): 1400 nM; IC50 (A375 malignant melanoma; [6]): 116 nM
COc1c(C)c(OC)c2c(c1O)[C@@H]1[C@@H]3Cc4c(OC)c(C)c(OC)c(O)c4[C@H](CNC(=O)c4ccc5cc(OCCCCN)ccc5n4)N3[C@@H](C#N)[C@H](C2)N1C,,,IC50 (A-549 lung carcinoma; [5]): 118 nM; IC50 (A375 malignant melanoma; [6]): 29 nM
"COc1c(C)c(OC)c2c(c1O)[C@@H]1[C@@H]3Cc4c(OC)c(C)c(OC)c(O)c4[C@H](CNC(=O)c4ccc5cc(OCCCCNC(=O)CCCCCNC(=O)CCCCCNC(=O)CCCC[C@@H]6SC[C@@H]7NC(=O)N[C@@H]76)ccc5n4)N3[C@@H](C#N)[C@H](C2)N1C [Biotinylated derivative, Biotinylated Quinalascidin Analog 1]",,,"IC50 (A-549 lung carcinoma; Homo sapiens, A549, 72 h, read-out: IC50 (nM) Cell line A549-Lung): 990 nM; IC50 (A375 malignant melanoma; Homo sapiens, A-375, 72 h, read-out: IC50 (nM) Cell line A375-Melanoma): 210 nM"
"COc1c(C)c(OC)c2c(c1O)[C@@H]1[C@@H]3Cc4c(OC)c(C)c(OC)c(O)c4[C@H](CN(Cc4ccccn4)Cc4ccccn4)N3[C@@H](C#N)[C@H](C2)N1C [N-(Pyr)2, bis-2-Pyridyl Derivative]",> 1400,> 1400,
"COC1=C(C)C(=O)C2=C(C1=O)[C@@H]1[C@@H]3CC4=C(C(=O)C(OC)=C(C)C4=O)[C@H](CNC(=O)C(C)=O)N3[C@@H](C#N)[C@H](C2)N1C [Saframycin A, (−)-Saframycin A, reference compound]",,,"IC50 (A-549 lung carcinoma; Table 1, A549 cells, 72 hr with compound, MTS readout, read-out: IC50, nM A549): 133 nM; IC50 (A375 malignant melanoma; Table 1, A375 cells, 72 hr with compound, MTS readout, read-out: IC50, nM A375): 5.3 nM"
"COc1c(C)c(OC)c2c(c1O)[C@@H]1[C@@H]3Cc4c(OC)c(C)c(OC)c(O)c4[C@H](CNC(=O)c4ccccc4F)N3[C@@H](C#N)[C@H](C2)N1C [drawing 136 R = F, 2-Fluorobenzamide derivative]",37,2.5,
"COc1c(C)c(OC)c2c(c1O)[C@@H]1[C@@H]3Cc4c(OC)c(C)c(OC)c(O)c4[C@H](CNC(=O)c4ccccc4)N3[C@@H](C#N)[C@H](C2)N1C [drawing 136 R = H, Benzamide derivative]",91,4.1,
"COc1c(C)c(OC)c2c(c1O)[C@@H]1[C@@H]3Cc4c(OC)c(C)c(OC)c(O)c4[C@H](CNC(=O)c4ccccc4-c4ccccc4)N3[C@@H](C#N)[C@H](C2)N1C [drawing 136 R = Phenyl, Biphenyl-2-carboxylic acid amide derivative]",330,34,
"COc1c(C)c(OC)c2c(c1O)[C@@H]1[C@@H]3Cc4c(OC)c(C)c(OC)c(O)c4[C@H](CNC(=O)c4ccc5ccccc5n4)N3[C@@H](C#N)[C@H](C2)N1C [drawing 160 R = H (11), Quinoline-2-carboxylic acid amide derivative]",4.4,1.3,
"COc1c(C)c(OC)c2c(c1O)[C@@H]1[C@@H]3Cc4c(OC)c(C)c(OC)c(O)c4[C@H](CNC(=O)c4ccc5cc(Cl)ccc5n4)N3[C@@H](C#N)[C@H](C2)N1C [drawing 162 R = Cl (14), 6-Chloroquinoline-2-carboxylic acid amide derivative]",4.1,1.5,
"COc1c(C)c(OC)c2c(c1O)[C@@H]1[C@@H]3Cc4c(OC)c(C)c(OC)c(O)c4[C@H](CNC(=O)c4ccc5ccccc5n4)N3C[C@H](C2)N1C [drawing 172 X = H, Reduced quinalascidin analog]",,,IC50 (A-549 lung carcinoma; [7]): > 9000 nM; IC50 (A375 malignant melanoma; [8]): > 9000 nM
"COc1c(C)c(OC)c2c(c1O)[C@@H]1[C@@H]3Cc4c(OC)c(C)c(OC)c(O)c4[C@H](CNC(=O)c4ccc5ccccc5n4)N3[C@@H](OC)[C@H](C2)N1C [drawing 172 X = OCH3, Methoxy derivative]",,,IC50 (A-549 lung carcinoma; [7]): 1100 nM; IC50 (A375 malignant melanoma; [8]): 120 nM
"COc1c(C)c(OC)c2c(c1O)[C@@H]1[C@@H]3Cc4c(OC)c(C)c(OC)c(O)c4[C@H](CNC(=O)c4ccc5ccccc5n4)N3[C@@H](O)[C@H](C2)N1C [drawing 172 X = OH, Hemiaminal derivative]",,,IC50 (A-549 lung carcinoma; [7]): 13 nM; IC50 (A375 malignant melanoma; [8]): 0.9 nM
